Measured values: patent publication EP4768484A1, “HETEROCYCLIC FUSED RING COMPOUND, AND COMPOSITION AND USE THEREOF” (Shenzhen TargetRx, Inc., priority 2023, dated 2025)

What was measured:
Assay type in all cases: cell-based
K562 cells = assay: Cell growth inhibitory activity assay (CellTiter-Glo), K562 cells; settings: Homo sapiens, 72 h, CTG cell viability
How it was run: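 Growth inhibition of human K562 cells, sourced from Nanjing Kebai (CBP60529), was assessed with Promega's CellTiter-Glo kit, which measures viability through ATP quantification. Log-phase cells went into the inner wells of 96-well plates, with PBS in edge wells, incubated overnight at 37 °C and 5% CO2, then exposed to serially diluted compound for 72 h.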

Ba/F3 BCR-ABL1 WT = target: T1, Ba/F3 BCR-ABL1 WT (Homo sapiens, UniProt P00519+P11274); assay: Cell growth inhibitory activity assay (CellTiter-Glo), Ba/F3 BCR-ABL1 WT cells; settings: 72 h, CTG cell viability
T1 construct: BCR (N-terminal fusion partner of the oncoprotein); expressed in transfected cells; host or cells: Ba/F3 (lentiviral transduction, monoclonal line)
How it was run: (§1)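 Ba/F3 parental cells or Ba/F3 lines lentivirally transduced with WT or mutant BCR-ABL1, seeded overnight then exposed to serially diluted compound 72 h at 37 °C, 5% CO2. Viability by CellTiter-Glo ATP luminescence with a T0 plate; 0.5% DMSO controls; IC50 from four-parameter nonlinear fit.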

Ba/F3 BCR-ABL1 T315I = target: T2, Ba/F3 BCR-ABL1 T315I (Homo sapiens, UniProt P00519+P11274, T315I); assay: Cell growth inhibitory activity assay (CellTiter-Glo), Ba/F3 BCR-ABL1 T315I cells; settings: 72 h, CTG cell viability
T2 construct: BCR (N-terminal fusion partner of the oncoprotein); expressed in transfected cells; host or cells: Ba/F3 (lentiviral transduction, monoclonal line)
How it was run: as §1

Ba/F3 parental cells = assay: Cell growth inhibitory activity assay (CellTiter-Glo), Ba/F3 parental cells; settings: Mus musculus, BaF3, 72 h, CTG cell viability, read-out: IC50 Ba/F3 BCR-ABL1 Parental
How it was run: as §1

Compound | IC50 (K562 cells) [nM] | IC50 (Ba/F3 BCR-ABL1 WT) [nM] | IC50 (Ba/F3 BCR-ABL1 T315I) [nM] | IC50 (Ba/F3 parental cells) [nM]
COc1ccc(-c2ccnc(-n3ncc4c3-c3cc(-c5cc(C(=O)Nc6ccc(OC(F)(F)Cl)cc6)cc6nc7n(c56)[C@H](C)COC7)cnc3C4)n2)cc1F [T-91-A, (R)-N-(4-(chlorodifluoromethoxy)phenyl)-6-(1-(4-(3-fluoro-4-methoxyphenyl)pyrimidin-2-yl)-1,4-dihydropyrazolo[3',4':3,4]cyclopenta[1,2-b]pyridin-7-yl)-4-methyl-3,4-dihydro-1H-benzo[4,5]imidazo[2,1-c][1,4]oxazine-8-carboxamide] | ≤ 5 | 5 to 50 | 50 to 1000 | > 1000
COc1ccc(-c2ccnc(-n3cc4c(n3)-c3cc(-c5cc(C(=O)Nc6ccc(OC(F)(F)Cl)cc6)cc6nc7n(c56)[C@H](C)COC7)cnc3C4)n2)cc1F [T-91-B, (R)-N-(4-(chlorodifluoromethoxy)phenyl)-6-(2-(4-(3-fluoro-4-methoxyphenyl)pyrimidin-2-yl)-2,4-dihydropyrazolo[3',4':3,4]cyclopenta[1,2-b]pyridin-7-yl)-4-methyl-3,4-dihydro-1H-benzo[4,5]imidazo[2,1-c][1,4]oxazine-8-carboxamide] | ≤ 5 | ≤ 5 | ≤ 5 | > 1000
C[C@@H]1COCc2nc3cc(C(=O)Nc4ccc(OC(F)(F)Cl)cc4)cc(-c4cnc5c(c4)-c4nn(-c6nccc(-c7ccccc7F)n6)cc4C5)c3n21 [T-92, (R)-N-(4-(chlorodifluoromethoxy)phenyl)-6-(2-(4-(2-fluorophenyl)pyrimidin-2-yl)-2,4-dihydropyrazolo[3',4':3,4]cyclopenta[1,2-b]pyridin-7-yl)-4-methyl-3,4-dihydro-1H-benzo[4,5]imidazo[2,1-c][1,4]oxazine-8-carboxamide] | ≤ 5 | ≤ 5 | ≤ 5 | > 1000
COc1cccc(-c2ccnc(-n3cc4c(n3)-c3cc(-c5cc(C(=O)Nc6ccc(OC(F)(F)Cl)cc6)cc6nc7n(c56)[C@H](C)COC7)cnc3C4)n2)c1F [T-93, (R)-N-(4-(chlorodifluoromethoxy)phenyl)-6-(2-(4-(2-fluoro-3-methoxyphenyl)pyrimidin-2-yl)-2,4-dihydropyrazolo[3',4':3,4]cyclopenta[1,2-b]pyridin-7-yl)-4-methyl-3,4-dihydro-1H-benzo[4,5]imidazo[2,1-c][1,4]oxazine-8-carboxamide] | ≤ 5 | ≤ 5 | ≤ 5 | > 1000
C[C@@H]1COCc2nc3cc(C(=O)Nc4ccc(OC(F)(F)Cl)cc4)cc(-c4cnc5c(c4)-c4nn(-c6nccc(-c7ccc(F)nc7)n6)cc4C5)c3n21 [T-94, (R)-N-(4-(chlorodifluoromethoxy)phenyl)-6-(2-(4-(6-fluoropyridin-3-yl)pyrimidin-2-yl)-2,4-dihydropyrazolo[3',4':3,4]cyclopenta[1,2-b]pyridin-7-yl)-4-methyl-3,4-dihydro-1H-benzo[4,5]imidazo[2,1-c][1,4]oxazine-8-carboxamide] | ≤ 5 | ≤ 5 | ≤ 5 | > 1000
C[C@@H]1COCc2nc3cc(C(=O)Nc4ccc(OC(F)(F)Cl)cc4)cc(-c4cnc5c(c4)-c4nn(-c6nccc(-c7cccnc7F)n6)cc4C5)c3n21 [T-95, (R)-N-(4-(chlorodifluoromethoxy)phenyl)-6-(2-(4-(2-fluoropyridin-3-yl)pyrimidin-2-yl)-2,4-dihydropyrazolo[3',4':3,4]cyclopenta[1,2-b]pyridin-7-yl)-4-methyl-3,4-dihydro-1H-benzo[4,5]imidazo[2,1-c][1,4]oxazine-8-carboxamide] | ≤ 5 | ≤ 5 | ≤ 5 | > 1000
C[C@@H]1COCc2nc3cc(C(=O)Nc4ccc(OC(F)(F)Cl)cc4)cc(-c4cnc5c(c4)-c4nn(-c6nccc(-c7cncc(F)c7)n6)cc4C5)c3n21 [T-96, (R)-N-(4-(chlorodifluoromethoxy)phenyl)-6-(2-(4-(5-fluoropyridin-3-yl)pyrimidin-2-yl)-2,4-dihydropyrazolo[3',4':3,4]cyclopenta[1,2-b]pyridin-7-yl)-4-methyl-3,4-dihydro-1H-benzo[4,5]imidazo[2,1-c][1,4]oxazine-8-carboxamide] | ≤ 5 | ≤ 5 | ≤ 5 | > 1000
COc1ncc(-c2ccnc(-n3cc4c(n3)-c3cc(-c5cc(C(=O)Nc6ccc(OC(F)(F)Cl)cc6)cc6nc7n(c56)[C@H](C)COC7)cnc3C4)n2)cc1F [T-97, (R)-N-(4-(chlorodifluoromethoxy)phenyl)-6-(2-(4-(5-fluoro-6-methoxyoyridin-3-yl)pyrimidin-2-yl)-2,4-dihydropyrazolo[3',4':3,4]cyclopenta[1,2-b]pyridin-7-yl)-4-methyl-3,4-dihydro-1H-benzo[4,5]imidazo[2,1-c][1,4]oxazine-8-carboxamide] | ≤ 5 | ≤ 5 | ≤ 5 | > 1000
C[C@@H]1COCc2nc3cc(C(=O)Nc4ccc(OC(F)(F)Cl)cc4)cc(-c4cnc5c(c4)-c4nn(-c6nccc(-c7cncc(C#N)c7)n6)cc4C5)c3n21 [T-98, (R)-N-(4-(chlorodifluoromethoxy)phenyl)-6-(2-(4-(5-cyanopyridin-3-yl)pyrimidin-2-yl)-2,4-dihydropyrazolo[3',4':3,4]cyclopenta[1,2-b]pyridin-7-yl)-4-methyl-3,4-dihydro-1H-benzo[4,5]imidazo[2,1-c][1,4]oxazine-8-carboxamide] | ≤ 5 | ≤ 5 | ≤ 5 | > 1000
C[C@@H]1COCc2nc3cc(C(=O)Nc4ccc(OC(F)(F)Cl)cc4)cc(-c4cnc5c(c4)-c4nn(-c6nccc(-c7ccc(C#N)nc7)n6)cc4C5)c3n21 [T-99, (R)-N-(4-(chlorodifluoromethoxy)phenyl)-6-(2-(4-(6-cyanopyridin-3-yl)pyrimidin-2-yl)-2,4-dihydropyrazolo[3',4':3,4]cyclopenta[1,2-b]pyridin-7-yl)-4-methyl-3,4-dihydro-1H-benzo[4,5]imidazo[2,1-c][1,4]oxazine-8-carboxamide] | ≤ 5 | ≤ 5 | ≤ 5 | > 1000
C[C@@H]1COCc2nc3cc(C(=O)Nc4ccc(OC(F)(F)Cl)cc4)cc(-c4cnc5c(c4)-c4nn(-c6nccc(-c7cncnc7)n6)cc4C5)c3n21 [T-100, (R)-6-(2-([4,5'-bipyrimidin]-2-yl)-2,4-dihydropyrazolo[3',4':3,4]cyclopenta[1,2-b]pyridin-7-yl)-N-(4-(chlorodifluoromethoxy)phenyl)-4-methyl-3,4-dihydro-1H-benzo[4,5]imidazo[2,1-c][1,4]oxazine-8-carboxamide] | ≤ 5 | ≤ 5 | ≤ 5 | > 1000
CC(C)c1cnc(-n2cc3c(n2)-c2cc(-c4cc(C(=O)Nc5ccc(OC(F)(F)Cl)cc5)cc5nc6n(c45)[C@H](C)COC6)cnc2C3)nc1 [T-101, (R)-N-(4-(chlorodifluoromethoxy)phenyl)-6-(2-(5-isopropyloyrimidin-2-yl)-2,4-dihydropyrazolo[3',4':3,4]cyclooenta[1,2-b]pyridin-7-yl)-4-methyl-3,4-dihydro-1H-benzo[4,5]imidazo[2,1-c][1,4]oxazine-8-carboxamide] | ≤ 5 | ≤ 5 | ≤ 5 | > 1000
C[C@@H]1COCc2nc3cc(C(=O)Nc4ccc(OC(F)(F)Cl)cc4)cc(-c4cnc5c(c4)-c4nn(-c6nccn6C)cc4C5)c3n21 [T-102, (R)-N-(4-(chlorodifluoromethoxy)phenyl)-4-methyl-6-(2-(1-methyl-1H-imidazol-2-yl)-2,4-dihydropyrazolo[3',4':3,4]cyclopenta[1,2-b]pyridin-7-yl)-3,4-dihydro-1H-benzo[4,5]imidazo[2,1-c][1,4]oxazine-8-carboxamide] | ≤ 5 | ≤ 5 | ≤ 5 | > 1000
Cc1ccc(-n2cc3c(n2)-c2cc(-c4cc(C(=O)Nc5ccc(OC(F)(F)Cl)cc5)cc5nc6n(c45)[C@H](C)COC6)cnc2C3)nn1 [T-104-A, (R)-N-(4-(chlorodifluoromethoxy)phenyl)-4-methyl-6-(2-(6-methylpyridazin-3-yl)-2,4-dihydropyrazolo[3',4':3,4]cyclopenta[1,2-b]pyridin-7-yl)-3,4-dihydro-1H-benzo[4,5]imidazo[2,1-c][1,4]oxazine-8-carboxamide] | ≤ 5 | ≤ 5 | 5 to 50 | > 1000
Cc1ccc(-n2ncc3c2-c2cc(-c4cc(C(=O)Nc5ccc(OC(F)(F)Cl)cc5)cc5nc6n(c45)[C@H](C)COC6)cnc2C3)nn1 [T-104-B, (R)-N-(4-(chlorodifluoromethoxy)phenyl)-4-methyl-6-(1-(6-methylpyridazin-3-yl)-1,4-dihydropyrazolo[3',4':3,4]cyclopenta[1,2-b]pyridin-7-yl)-3,4-dihydro-1H-benzo[4,5]imidazo[2,1-c][1,4]oxazine-8-carboxamide] | ≤ 5 | ≤ 5 | 5 to 50 | > 1000
C[C@@H]1COCc2nc3cc(C(=O)Nc4ccc(OC(F)(F)Cl)cc4)cc(-c4ccc5c(c4)-c4n[nH]cc4C5)c3n21 [T-108, (R)-N-(4-(chlorodifluoromethoxy)phenyl)-6-(2,4-dihydroindeno[1,2-c]pyrazol-7-yl)-4-methyl-3,4-dihydro-1H-benzo[4,5]imidazo[2,1-c][1,4]xxazine-8-carboxamide] | ≤ 5 | ≤ 5 | > 1000 | > 1000
